From publication PMC3744471, “Mitochondria Are the Target Organelle of Differentiation-Inducing Factor-3, an Anti-Tumor Agent Isolated from Dictyostelium Discoideum” (PLoS ONE, 2013)

What was measured:
[1] = Fluorescence microscopy: membrane permeability and cellular localization; type: cell-based, human; conditions: human, pH 7.4, HeLa, read-out: Time to reach maximal level in cells
Method: (§1) HeLa cells were cultured for 1–2 days with 2 ml DMEM-FBS in 35-mm tissue culture dishes (Becton Dickinson), washed twice with PBS(–), and then fixed for 15–20 min at room temperature with 2 ml of 3.7% (v/v) formaldehyde in PBS(–). The cells were then washed twice with PBS(–) and used for staining with the fluorescent probes. Alternatively, the fixed cells were treated for 15–20 min with 2 ml of 0.1% (w/v) Triton X-100 in PBS(–), washed twice with PBS(–), and used for staining with the fluorescent probes. […]
(§2) For high magnification multi-color imaging, cells were incubated for the appropriate times with 2 ml of DMEM-FBS (HeLa and 3T3-L1) or MEM-α-FBS (LM8) containing various compounds in 35-mm plastic dishes (tissue culture treated µ-Dish; ibidi, Martinsried, Germany). The cells were washed twice with 2 ml of PBS(–), submerged in 2 ml of Hepes buffer (pH 7.4), and observed at room temperature with a Keyence BZ-9000 fluorescence microscope (Osaka, Japan) equipped with an oil immersion 100× lens (CFI Plan Apo VC100XH) and multi-filters that can distinguish four fluorescent probes simultaneously. […]

HeLa cells = assay: as above; type: cell-based, human; conditions: 20 µM
Method: as §1, §2

CCCCCC(=O)c1c(O)cc(OCCCCNC(=O)CCC2=[N+]3C(=Cc4c(C)cc(C)n4[B-]3(F)F)C=C2)c(Cl)c1O [BODIPY-DIF-3]
Tmax at 20 µM [1]: ≤ 30 min | Time to penetrate the cell membrane (HeLa cells): ≤ 2 min
